Reference: patent US20240116994A1, “Peptides And Use Thereof For Diagnosing And Treating Antiphospholipid Syndrome” (UNIVERSITE DE GENEVE, priority 2021, published 2024)
Where no end group is shown, it is not given here.

Tests used:
[1] = tested on: binding of aPL to IIa-8.0-biot-2x; test: Inhibition experiments: remaining reactivity of pre-treated aPL on IIa-8.0-biot-2x ELISA; parameters: species or system Human; conditions: aPL preincubated 90 min at RT with beads 15, 30 and 60 pmol
Experimental: To examine the functional ability of IIa-5.0, IIa-7.1, IIa-8.0 peptides and R39-R43 to inhibit the activity of pool of aPL isolated from APS patients, the remaining reactivity of aPL was evaluated for IIa-8.0-biot-2x which had previously been treated with increasing concentration of peptides. […] The flag-type orientation prevents potential interactions with the plate or with itself, particularly in solution. Streptavidin magnetic beads associated with IIa-5.0-biot-2x, IIa-7.1-biot-2x and Ha-8.0-biot-2x peptides have been generated. aPL was treated with increasing concentrations of beads before to measure the remaining binding activity of aPL on IIa-8.0-biot-2x ELISA (FIG. 7C).
To assess the ability of IIa-5.0-2x, IIa-7.1-2x and IIa-8.0-2x to inhibit in vitro the binding of aPL to IIa-8.0-biot-2x. aPL pool sera were preincubated for 90 min at RT with increasing concentrations (1, 10 and 10011 g/ml) of monomeric, dimeric IIa-5.0, IIa-7.1 and IIa-8.0 peptides and of IIa-5.0-biot-2x, IIa-7.1-biot-2x and IIa-8.0-biot-2x-associated beads (15, 30 and 60 pmol). 120 pmol correspond to the amount of IIa-8.0-biot-2x coated in well of Streptavidin Coated High Capacity Plates 96 well plates (Thermofisher). After the pre-incubation time, the serum was added anti-b2GP1 IgG (anti-IIa-8.0-2x) ELISA according to the protocol.

aPL produced by mice = test: ELISA of IgG anti-IIa-8.0-biot-2x in serum of lupus-prone mice; type: binding; conditions: serum of apoe−/−.Nba2.Yaa mice on HCD (FIG. 3A)
From the text: B6.Nba2. Yaa mice were generated as described.^8 The Apoe^−/− null mutation was introduced in B6.Nba2.Yaa mice by breeding. Eleven-week old Apoe^−/− C57B1/6 and Apoe^−/−Nba2.Yaa mice were subjected to 11 weeks of high cholesterol diet (HCD) (20.1% fat, 1.25% cholesterol, Research Diets, Inc., New Brunswick, NJ), as a model of advanced atherosclerosis. The treatments and atherosclerosis protocols were well-tolerated by the mice, and no adverse events (such as weight loss and signs of systemic toxicity) were reported. At sacrifice, haematological parameters were routinely measured. Animals were euthanized by exsanguination after anesthesia with 4% isoflurane. All breeding and experimental protocols and procedures were reviewed and approved by the Institutional Animal Care and Use Committee of the Geneva University School of Medicine.
Determination of aPL by ELISA—MaxiSorp™ 96 well plates (Nunc) or Streptavidin plate (Thermofisher) were coated with 10 μg/ml recombinant domains of β2GP1, peptides or biotinylated-peptide prior to incubation with aPLA. Secondary anti-human antibodies conjugated to IR800CW (Rockland) or HRP were used. Protein- or peptide-bound antibodies were detected and quantified by the Odyssey system (Li-Cor Biosciences) or absorbance in optical densities (OD) was determined at 405 nm (molecular Devices™ Filtermax). […]

IIa-8.0-biot-2x: dimeric biotinylated IIa-8.0 peptide; also used associated with streptavidin magnetic beads (RSRGGMRKRKKPLTGRSRGGMRKRKKPLTG; also: dimeric peptide (two IIa-8.0 copies), biotinylated, site not given here)
inhibition of aPL binding to IIa-8.0-biot-2x ELISA by peptide associated with streptavidin magnetic beads [1]: dose dependently inhibited | interaction with aPL produced by mice (aPL produced by mice): able to interact also with aPL produced by mice
